From US20260015350A1, “AZAQUINAZOLINE PAN-KRAS INHIBITORS” (Mirati Therapeutics, Inc., priority 2022, published 2026)

How the values were obtained:
[1] = biological target: T1, KRas^G12C (Homo sapiens, UniProt P01116, G12C); assay: KRas binding assay (TR-FRET tracer displacement), KRas G12C; settings: for IC50: TR-FRET tracer displacement, KRas G12C
T1 construct: Biotinylated KRas (corresponding to amino acids 1-169, produced at Accelegan Inc.); biotin (biotinylated); purchased Accelegan Inc

[2] = biological target: T2, KRas^G12S (Homo sapiens, UniProt P01116, G12S); assay: KRas binding assay (TR-FRET tracer displacement), KRas G12S; settings: for IC50: TR-FRET tracer displacement, KRas G12S
T2 construct: Biotinylated KRas (corresponding to amino acids 1-169, produced at Accelegan Inc.); biotin (biotinylated); purchased Accelegan Inc
T2 sequence (P01116 1-169 isoform P01116-2 G12S): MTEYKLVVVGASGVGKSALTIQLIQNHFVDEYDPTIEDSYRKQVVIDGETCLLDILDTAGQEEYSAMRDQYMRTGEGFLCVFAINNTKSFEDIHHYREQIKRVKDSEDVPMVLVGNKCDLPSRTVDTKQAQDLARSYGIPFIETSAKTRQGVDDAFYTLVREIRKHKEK

[3] = biological target: T3, KRas^G12A (Homo sapiens, UniProt P01116, G12A); assay: KRas binding assay (TR-FRET tracer displacement), KRas G12A; settings: for IC50: TR-FRET tracer displacement, KRas G12A
T3 construct: Biotinylated KRas (corresponding to amino acids 1-169, produced at Accelegan Inc.); biotin (biotinylated); purchased Accelegan Inc
T3 sequence (P01116 1-169 isoform P01116-2 G12A): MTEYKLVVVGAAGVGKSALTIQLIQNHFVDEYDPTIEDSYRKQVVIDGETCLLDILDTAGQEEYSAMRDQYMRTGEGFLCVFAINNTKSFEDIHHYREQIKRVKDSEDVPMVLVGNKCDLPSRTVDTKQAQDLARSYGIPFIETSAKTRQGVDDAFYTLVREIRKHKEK

[4] = tested on: KRas-mediated phosphorylation of ERK in H460 cells; assay: Inhibition of KRas-mediated phosphorylation of ERK (Cisbio HTRF pERK), H460 cells; assay type: cell-based; settings: Homo sapiens; for IC50: NCI-H460, HTRF pERK; for inhibition at 0.1 µM: NCI-H460, 3 h, single point, 100 nM compound, 3 hrs
Summary of the method: (§1)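 Phosphorylated ERK was quantified by HTRF using d2-conjugate and Cryptate antibodies added to lysates for 2 hrs at room temperature.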

[5] = tested on: KRas-mediated phosphorylation of ERK in A549 cells; assay: Inhibition of KRas-mediated phosphorylation of ERK (Cisbio HTRF pERK), A549 cells; assay type: cell-based; settings: Homo sapiens; for IC50: HTRF pERK; for inhibition at 0.1 µM: A549, 3 h, single point, 100 nM compound, 3 hrs
Summary of the method: (§2)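 A cell-based HTRF pERK assay: ten-point, threefold titrations beginning at 10 uM were applied for 3 hrs, with 0.2 uM Trametinib wells as the minimum control. Cells were lysed cold, and lysate was incubated with the antibody pair for 2 hrs before reading.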

[6] = biological target: T4, KRas^WT (Homo sapiens, UniProt P01116); assay: KRas binding assay (TR-FRET tracer displacement), KRas WT; settings: for IC50: TR-FRET tracer displacement, KRas WT
T4 construct: Biotinylated KRas (corresponding to amino acids 1-169, produced at Accelegan Inc.); biotin (biotinylated); purchased Accelegan Inc
T4 sequence (P01116 1-169 isoform P01116-2): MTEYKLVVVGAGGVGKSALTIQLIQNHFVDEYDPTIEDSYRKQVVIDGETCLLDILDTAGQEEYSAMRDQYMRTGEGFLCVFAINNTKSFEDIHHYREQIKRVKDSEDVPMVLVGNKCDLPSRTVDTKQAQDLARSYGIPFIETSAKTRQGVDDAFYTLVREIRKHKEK

[7] = biological target: T5, KRas^G13D (Homo sapiens, UniProt P01116, G13D); assay: KRas binding assay (TR-FRET tracer displacement), KRas G13D; settings: for IC50: TR-FRET tracer displacement, KRas G13D
T5 construct: Biotinylated KRas (corresponding to amino acids 1-169, produced at Accelegan Inc.); biotin (biotinylated); purchased Accelegan Inc
T5 sequence (P01116 1-169 isoform P01116-2 G13D): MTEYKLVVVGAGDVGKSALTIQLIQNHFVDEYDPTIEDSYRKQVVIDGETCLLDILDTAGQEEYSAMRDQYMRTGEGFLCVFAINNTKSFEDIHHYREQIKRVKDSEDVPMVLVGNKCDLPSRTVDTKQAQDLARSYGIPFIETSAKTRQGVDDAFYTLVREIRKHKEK

[8] = biological target: T6, KRas^G12D (Homo sapiens, UniProt P01116, G12D); assay: KRas binding assay (TR-FRET tracer displacement), KRas G12D
T6 construct: Biotinylated KRas (corresponding to amino acids 1-169, produced at Accelegan Inc.); biotin (biotinylated); purchased Accelegan Inc
T6 sequence (P01116 1-169 isoform P01116-2 G12D): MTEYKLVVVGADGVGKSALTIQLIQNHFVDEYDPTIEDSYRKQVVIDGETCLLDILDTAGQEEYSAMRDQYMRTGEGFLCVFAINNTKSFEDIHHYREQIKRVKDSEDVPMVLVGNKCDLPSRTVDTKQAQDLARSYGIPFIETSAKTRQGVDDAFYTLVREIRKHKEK

[9] = tested on: KRas-mediated phosphorylation of ERK in PSN1 cells; assay: Inhibition of KRas-mediated phosphorylation of ERK (Cisbio HTRF pERK), PSN1 cells; assay type: cell-based; settings: Homo sapiens
Summary of the method: (§3)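 Day 1 seeding: 6,000 cells per well, RPMI/10% FBS, left overnight at 37° C. with 5% CO2. Plates then stood covered for 4 h at room temperature prior to HTRF detection of pERK.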

[10] = biological target: T7, KRas^G12V (Homo sapiens, UniProt P01116, G12V); assay: KRas binding assay (TR-FRET tracer displacement), KRas G12V
T7 construct: Biotinylated KRas (corresponding to amino acids 1-169, produced at Accelegan Inc.); biotin (biotinylated); purchased Accelegan Inc
T7 sequence (P01116 1-169 isoform P01116-2 G12V): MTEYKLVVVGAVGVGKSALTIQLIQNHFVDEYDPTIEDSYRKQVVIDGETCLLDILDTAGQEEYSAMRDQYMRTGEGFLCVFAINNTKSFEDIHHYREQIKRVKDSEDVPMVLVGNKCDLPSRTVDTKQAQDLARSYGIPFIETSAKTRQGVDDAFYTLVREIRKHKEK

[11] = tested on: KRas-mediated phosphorylation of ERK in AsPC-1 cells; assay: Inhibition of KRas-mediated phosphorylation of ERK (Cisbio HTRF pERK), AsPC-1 cells; assay type: cell-based; settings: Homo sapiens, ASPC1, AsPC-1 cells; HTRF pERK
Summary of the method: as §1

[12] = tested on: KRas-mediated phosphorylation of ERK in H727 cells; assay: Inhibition of KRas-mediated phosphorylation of ERK (Cisbio HTRF pERK), H727 cells; assay type: cell-based; settings: Homo sapiens, NCI-H727, H727 cells; HTRF pERK
Summary of the method: as §1

[13] = tested on: KRas-mediated phosphorylation of ERK in HCT116 cells; assay: Inhibition of KRas-mediated phosphorylation of ERK (Cisbio HTRF pERK), HCT116 cells; assay type: cell-based; settings: Homo sapiens; for IC50: HCT-116, HTRF pERK; for inhibition at 0.1 µM: HCT-116, 3 h, single point, 100 nM compound, 3 hrs
Summary of the method: as §2

[14] = biological target: T8, KRas^G12R (Homo sapiens, UniProt P01116, G12R); assay: KRas binding assay (TR-FRET tracer displacement), KRas G12R
T8 construct: Biotinylated KRas (corresponding to amino acids 1-169, produced at Accelegan Inc.); biotin (biotinylated); purchased Accelegan Inc
T8 sequence (P01116 1-169 isoform P01116-2 G12R): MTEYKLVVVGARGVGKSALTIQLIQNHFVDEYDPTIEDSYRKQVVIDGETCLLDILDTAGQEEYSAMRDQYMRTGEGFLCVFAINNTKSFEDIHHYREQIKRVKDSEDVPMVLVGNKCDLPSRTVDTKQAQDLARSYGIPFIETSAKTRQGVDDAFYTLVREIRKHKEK

[15] = tested on: KRas-mediated phosphorylation of ERK in H358 cells; assay: Inhibition of KRas-mediated phosphorylation of ERK (Cisbio HTRF pERK), H358 cells; assay type: cell-based; settings: Homo sapiens; for IC50: NCI-H358, HTRF pERK; for inhibition at 0.1 µM: NCI-H358, 3 h, single point, 100 nM compound, 3 hrs
Summary of the method: as §1

[16] = tested on: KRas-mediated phosphorylation of ERK in MKN1 cells; assay: Inhibition of KRas-mediated phosphorylation of ERK (Cisbio HTRF pERK), MKN1 cells; assay type: cell-based; settings: Homo sapiens, MKN-1
Summary of the method: as §3

[17] = biological target: T9, KRas^Q61H (Homo sapiens, UniProt P01116, Q61H); assay: KRas binding assay (TR-FRET tracer displacement), KRas Q61H; settings: for IC50: TR-FRET tracer displacement, KRas Q61H
T9 construct: Biotinylated KRas (corresponding to amino acids 1-169, produced at Accelegan Inc.); biotin (biotinylated); purchased Accelegan Inc
T9 sequence (P01116 1-169 isoform P01116-2 Q61H): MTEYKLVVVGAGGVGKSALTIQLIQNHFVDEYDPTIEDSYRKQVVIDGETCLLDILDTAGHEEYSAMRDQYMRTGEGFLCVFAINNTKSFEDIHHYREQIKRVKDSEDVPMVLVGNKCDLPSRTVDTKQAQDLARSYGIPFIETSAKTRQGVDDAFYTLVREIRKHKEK

[18] = single point, 10 nM compound, TR-FRET

T1 sequence (P01116 1-169 isoform P01116-2 G12C): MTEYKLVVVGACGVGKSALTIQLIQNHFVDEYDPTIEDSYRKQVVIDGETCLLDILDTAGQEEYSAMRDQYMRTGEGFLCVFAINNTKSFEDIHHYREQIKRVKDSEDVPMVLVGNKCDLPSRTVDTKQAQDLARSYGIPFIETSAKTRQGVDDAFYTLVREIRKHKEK

Structure (SMILES) | IC50 [1] [nM] | IC50 [2] [nM] | IC50 [3] [nM] | IC50 [4] [nM] | IC50 [5] [nM] | IC50 [6] [nM] | IC50 [7] [nM] | IC50 [8] [nM] | IC50 [9] [nM] | IC50 [10] [nM] | IC50 [11] [nM] | IC50 [12] [nM] | IC50 [13] [nM] | IC50 [14] [nM] | IC50 [15] [nM] | IC50 [16] [nM] | IC50 [17] [nM] | inhibition at 0.1 µM [4] [%] | inhibition at 0.1 µM [5] [%] | inhibition at 0.1 µM [13] [%] | further results
C[C@@]1(O)CCCN(c2nc(OC[C@@]34CCCN3C[C@H](F)C4)nc3c(F)c(-c4c(C5CC5)c(Cl)cc5[nH]ncc45)ncc23)C1 [Example 880, (3R)-1-(7-(6-chloro-5-cyclopropyl-1H-indazol-4-yl)-8-fluoro-2-(((2R,7aS)-2-fluorotetrahydro-1H-pyrrolizin-7a(5H)-yl)methoxy)pyrido[4,3-d]pyrimidin-4-yl)-3-methylpiperidin-3-ol] | 7 | 8 | 9 | 176 | 176 | 11 | 7 | 5 | > 10000 | 6 | 153 | 196 | 520 | 12 | 100 | 24 | 12 | – | – | – | –
CCc1cccc2cc3[nH]ncc3c(-c3ncc4c(N5CCCn6nc(C(=O)N(C)C)cc6C5)nc(OC[C@@]56CCCN5C[C@H](F)C6)nc4c3F)c12 [Example 770, 5-(7-(5-ethyl-1H-benzo[f]indazol-4-yl)-8-fluoro-2-(((2R,7aS)-2-fluorohexahydro-1H-pyrrolizin-7a-yl)methoxy)pyrido[4,3-d]pyrimidin-4-yl)-N,N-dimethyl-5,6,7,8-tetrahydro-4H-pyrazolo[1,5-a][1,4]diazepine-2-carboxamide] | 6 | 6 | 12 | 1720 | 3330 | 15 | 25 | < 2 | > 10000 | 3 | 444 | 654 | 3440 | 7 | 258 | 5 | 21 | -1 | -1 | 10 | inhibition at 0.1 µM [15]: 12%
C#Cc1c(F)ccc2cc(O)cc(-c3ncc4c(N5CCC[C@@](C)(O)C5)nc(OC[C@@]56CCCN5[C@@H](CO)CC6)nc4c3F)c12 [Example 809, (R)-1-(7-(8-ethynyl-7-fluoro-3-hydroxynaphthalen-1-yl)-8-fluoro-2-(((3R,7aS)-3-(hydroxymethyl)tetrahydro-1H-pyrrolizin-7a(5H)-yl)methoxy)pyrido[4,3-d]pyrimidin-4-yl)-3-methylpiperidin-3-ol] | 3 | 4 | 5 | 918 | 2560 | 5 | 3 | 3 | > 10000 | 4 | 871 | 809 | 1510 | 5 | 228 | 57 | 5 | – | – | – | –
CCc1c(F)ccc2cc(O)cc(-c3ncc4c(N5CCCCn6nc(C(=O)N(C)C)cc6C5)nc(OC[C@@]56CCCN5C[C@H](F)C6)nc4c3F)c12 [Example 671, 5-(7-(8-ethyl-7-fluoro-3-hydroxynaphthalen-1-yl)-8-fluoro-2-(((2R,7aS)-2-fluorotetrahydro-1H-pyrrolizin-7a(5H)-yl)methoxy)pyrido[4,3-d]pyrimidin-4-yl)-N,N-dimethyl-4,5,6,7,8,9-hexahydropyrazolo[1,5-a][1,4]diazocine-2-carboxamide] | – | – | – | – | – | – | – | < 2 | 4110 | < 2 | 28 | 6 | – | < 2 | – | 7 | – | 60 | 60 | 35 | inhibition at 0.01 µM [1, 18]: 98%; inhibition at 0.01 µM [2, 18]: 98%; inhibition at 0.01 µM [3, 18]: 97%; inhibition at 0.01 µM [6, 18]: 93%; inhibition at 0.01 µM [7, 18]: 93%; inhibition at 0.1 µM [15]: 98%; inhibition at 0.01 µM [17, 18]: 94%
